In data set [1] the test system is P19 neurons. It counts as cell-based. The conditions noted are these: for Protection against oxidative stress caused by hydrogen peroxide: assayed at 0.5× suboptimal concentration, 0 to 10 mM H2O2, 30 min. How it is done:
Culture and neuronal differentiation of P19 embryonal carcinoma cells were done according to the procedures of Jeannotte et al. (1997) with the following modifications for microscale adaptation of cultures to 96-well plates: cell aggregates obtained at day 4 of the treatment of P19 cells with retinoic acid were trypsinized with 0.025% trypsin-1 mM EDTA in PBS and subjected to mechanical passages to obtain individual cells which were seeded in gelatin-precoated microwells at a density of 0.7-1×10^5 cells per well. The newly seeded cells (neurons) were cultured in supplemented Neurobasal medium (Neurobasal® containing 0.5 mM L-glutamine and 0.5% B27 supplement) until exposure to oxidative conditions at day 7. Because this defined serum-free medium sustains growth of P19 neurons (Yao et al., 1995) but discourages the proliferation of fibroblasts, another cell derivative of the differentiation of P19 cells with retinoic acid (McBurney, 1993; Jeannotte et al., 1997), the cell populations in microwells were composed mostly of neurons (≦95%).
The prooxidant systems tested with P19 neurons were XA/XAO, H2O2, and H2O2/Fe^+2. Before neurons were exposed to either one of these systems, they were carefully washed with PBS and then incubated at 37° C., in an atmosphere of 95% ambient air and 5% CO2, and in the specific conditions of each system, as follows: i) from 0 to 90 min in the presence of PBS containing 500 μM XA and 50 mU/ml XAO, with the enzyme added last to start the reaction; ii) for 30 min in the presence of PBS containing 0 to 10 mM H2O2 with peroxide added last; and iii) for 30 min in the presence of PBS containing 0 to 10 mM H2O2 plus 50 μM FeCl2, with peroxide added last. Conditions were initially taken from Cini et al. (1994) for XA/XAO, from Desagher et al. (1996) for H2O2, and from Takemura et al. (1994) for H2O2/Fe^+2 systems respectively, and adapted to produce dose- or time-dependent cell mortality in P19 neurons. The first studies done with the H2O2/Fe^2+ system included the addition of 500 μM ascorbic acid; however, since responses of P19 neurons were similar whether or not ascorbic acid was present, this vitamin was omitted in subsequent experiments.
When TRIAD or its components were tested for their antioxidant action, they were administered to cells just prior the addition of XAO or H2O2. After incubation of cells under oxidative conditions, the prooxidant medium was removed and replaced with 200 μl of supplemented Neurobasal-minus AO (Neurobasal® containing L-glutamine and the B27-minus AO supplement). B27-minus AO is a version of B27 supplement sold by Gibco-BRL from which normally present antioxidants (AO=vitamin E, catalase, SOD and GSH) have been removed. Cells were incubated in this Neurobasal-minus AO medium for 16 h, at 37° C., 5% CO2, and for a further 7 h in the same medium but in the presence of Alamar Blue for viability measurement.
(§1) Fifteen (15) μl Alamar Blue was added to the culture medium of each well (200 μl) and incubation resumed for 7 h at 37° C., 5% CO2. A 180-μl aliquot of each culture medium was read by fluorescence using a wavelength of 544 nm for excitation and of 590 nm for emission; fluorescence increases upon reduction of the dye by metabolic activity of viable cells. Fluorescence determinations were done with a fluorimeter adapted to read microplates. Viability is reported as %, comparing the fluorescence units obtained for cells exposed to oxidative conditions to those of control (non-exposed) cells.

Data set [2] is described as follows: In vitro antioxidant capacity: inhibition of DPD oxidation by H2O2, in absence of cells. As for the experimental part: Oxidation of N,N-diethyl-p-phenylenediamine (DPD) by a prooxidant system was used as a general reporter of the amount of ROS generated by that system (Anonymous, 1985; Chahine et al., 1991). Antioxidant capacity of preparations of TRIAD (or of its components) was defined as the ability to inhibit the oxidation of DPD by prooxidants.
To estimate the antioxidant capacity of TRIAD preparations in the prooxidant conditions used with P19 neurons, DPD was added to a final concentration of 32 mM to 200 μl of each prooxidant system described above (see section 2.4) and incubated for the times tested with the cells. At the end of incubation, the amount of oxidized DPD was determined at 560 nm using a spectrophotometer adapted to microscale measurement.

Data set [3] has as its system P19 neurons. Nature of the data set: Protection of P19 neurons exposed to XA/XAO mediated oxidative stress (Alamar Blue viability). The data set is classed as cell-based. The conditions noted are these: 1× concentration. How it is done:
Culture and neuronal differentiation of P19 embryonal carcinoma cells were done according to the procedures of Jeannotte et al. (1997) with the following modifications for microscale adaptation of cultures to 96-well plates: cell aggregates obtained at day 4 of the treatment of P19 cells with retinoic acid were trypsinized with 0.025% trypsin-1 mM EDTA in PBS and subjected to mechanical passages to obtain individual cells which were seeded in gelatin-precoated microwells at a density of 0.7-1×10^5 cells per well. […]
Another protocol was also tested for XA/XAO system to generate a milder oxidative stress. […] At end of stress, PBS was changed for Neurobasal-minus AO medium and cells were incubated for 7 h, readily in the presence of Alamar Blue, for viability measurement.
as §1

`OO` [hydrogen peroxide, reference compound]: in data set [1] (mouse, 30 min), the LD50 came to 0.3 mM. Moreover, the Cell mortality entry in data set [1] (mouse, 30 min, 1 mM) was “approximately 70%”.
Take `CC(=O)C(=O)[O-].[Na+]` [pyruvate, sodium pyruvate]: in data set [2], the “Inhibition of the oxidation of DPD by H2O2” value is “substantial although not total antioxidant effect”. Also, the “Protection against neuronal death caused by XA/XAO” value in data set [3] (500 μM XA, 50 mU/mL XAO, 0-90 min) is given as “protected only slightly less than TRIAD 1×”. Further, in data set [3] (from 30 to 90 min of incubation with XA/XAO), the “Protective effect against XA/XAO” value is “remained stable”. Moreover, the “Contribution to TRIAD protective effect” value in data set [1] (H2O2/Fe2+ prooxidant system) was “contributed for most of TRIAD protective effect”. For the same compound, the “Protection against oxidative stress caused by hydrogen peroxide” value in data set [1] was “substantial and stable protection up to 10 mM H2O2”. Further, the “Share of the protective effect of TRIAD” value in data set [1] (at low hydrogen peroxide concentrations) is “half”. The “Contribution to the neuroprotective action of TRIAD against H2O2-induced injury” value in data set [1] (cultured neurons) is reported as 60%.
For the compound `Cc1c(C)c2c(c(C)c1O)CC[C@@](C)(CCC[C@H](C)CCC[C@H](C)CCCC(C)C)O2` [vitamin E, α-tocopherol], the “Protection against oxidative stress caused by hydrogen peroxide” value in data set [1] is “did not provide protection”.
